Test results taken from the NIST ThermoML archive (doi:10.1016/j.jct.2006.03.016).

Assay: molar heat capacity at constant pressure
Conditions: 101.33 kPa, Crystal, Small (less than 1 g) adiabatic calorimetry

[Al+3].[Al+3].[O-2].[O-2].[O-2] [aluminum oxide (Al2O3)]
Conditions	molar heat capacity at constant pressure [J/K/mol]
67.51 K	4.23
72.34 K	5.283
77.04 K	6.242
81.8 K	7.403
86.61 K	8.725
91.44 K	10.14
96.31 K	11.67
101.2 K	13.33
106.12 K	15.05
111.05 K	16.78
116.01 K	18.55
120.97 K	20.4
125.95 K	22.45
126.3 K	22.61
130.94 K	24.45
131.11 K	24.51
136.11 K	26.55
141.13 K	28.63
146.18 K	30.36
151.22 K	32.53
156.26 K	34.6
161.32 K	36.54
166.38 K	38.67
171.45 K	40.51
176.54 K	42.37
181.62 K	44.42
186.71 K	46.27
191.8 K	48.19
192.43 K	48.27
197.63 K	50.37
202.75 K	52.12
207.86 K	53.85
212.97 K	55.55
218.09 K	57.33
223.2 K	59.08
228.33 K	60.72
233.45 K	62.37
238.56 K	63.95
243.82 K	65.47
248.97 K	66.83
253.98 K	68.28
259.13 K	69.78
264.27 K	71.19
269.43 K	72.53
274.59 K	73.76
279.73 K	74.97
284.88 K	76.16
290.03 K	77.34
295.19 K	78.6
300.35 K	79.79
305.76 K	80.81
311 K	82
316.16 K	83.02
321.33 K	83.65
326.51 K	84.83
331.66 K	86.08

O=C(O)c1ccccc1 [benzoic acid]
Conditions	molar heat capacity at constant pressure [J/K/mol]
15.95 K	7.243
17.21 K	7.834
19 K	9.964
20.93 K	12.14
22.91 K	14.48
25.23 K	16.99
27.83 K	19.32
30.45 K	22.55
33.46 K	25.66
36.82 K	28.56
40.35 K	31.83
42.49 K	34.49
44.38 K	35.05
46.36 K	38.04
50.06 K	39.2
52.26 K	40.57
54.24 K	41.94
54.48 K	43.06
56.71 K	43.66
59.17 K	46.1
59.64 K	45.51
63.04 K	47.67
67.38 K	50.03
72.18 K	52.48
77.01 K	54.7
81.66 K	56.45
86.47 K	58.38
91.42 K	60.83
96.33 K	62.66
101.31 K	64.69
106.39 K	66.75
111.42 K	68.59
116.46 K	70.27
121.51 K	72.23
126.57 K	74.39
131.52 K	76.4
136.54 K	78.39
141.64 K	80.14
146.72 K	81.95
151.83 K	83.84
156.96 K	85.94
162.08 K	87.95
167.21 K	90.16
172.34 K	92.08
177.47 K	93.88
182.61 K	95.82
187.75 K	97.76
192.89 K	100.22
198.03 K	102.35
203.11 K	104.33
208.2 K	106.33
213.34 K	108.35
218.49 K	110.69
223.64 K	113.13
228.8 K	115.06
233.96 K	117.66
239.1 K	120.1
244.26 K	122.38
249.39 K	124.56
254.51 K	127.05
259.67 K	129.62
264.84 K	131.98
269.99 K	134.13
275.13 K	137.14
280.31 K	138.73
285.48 K	141.06
290.65 K	143.42
296.6 K	146.34
302.17 K	148.97
306.93 K	151.12
312.15 K	153.27
317.33 K	155.37
322.49 K	157.74
326.5 K	160.6
330.48 K	161.44
335.65 K	163.8
340.82 K	165.96

[Cu] [copper]
Conditions	molar heat capacity at constant pressure [J/K/mol]
14.2 K	0.1027
15.68 K	0.2097
16.38 K	0.2384
16.77 K	0.2351
17.8 K	0.3079
19.33 K	0.4049
21 K	0.5507
22.76 K	0.7024
24.89 K	0.9364
27.19 K	1.257
29.54 K	1.621
32.17 K	2.071
35.07 K	2.634
35.81 K	2.796
38.36 K	3.344
38.95 K	3.483
42.31 K	4.276
46.05 K	5.166
50.21 K	6.197
54.08 K	7.128
54.62 K	7.296
56.1 K	7.632
58.53 K	8.226
59.11 K	8.36
59.5 K	8.478
63.71 K	9.435
63.87 K	9.508
68.55 K	10.6
73.28 K	11.6
78.07 K	12.55
82.91 K	13.41
87.8 K	14.23
92.71 K	15
93.13 K	15.06
97.66 K	15.72
97.7 K	15.7
102.69 K	16.38
107.7 K	16.96
112.73 K	17.49
117.78 K	18.01
122.84 K	18.49
127.92 K	18.95
133 K	19.37
138.1 K	19.74
143.21 K	20.06
148.33 K	20.36
151.4 K	20.55
153.45 K	20.66
156.5 K	20.85
158.58 K	20.95
161.61 K	21.11
166.74 K	21.37
171.89 K	21.59
177.04 K	21.77
182.2 K	21.94
187.36 K	22.15
192.53 K	22.25
197.69 K	22.35
202.86 K	22.6
203.62 K	22.66
208.02 K	22.73
208.7 K	22.81
213.88 K	22.96
219.05 K	23.11
224.22 K	23.25
229.39 K	23.33
234.57 K	23.45
239.76 K	23.52
244.94 K	23.6
247.71 K	23.62
250.12 K	23.7
253.15 K	23.76
255.31 K	23.79
261.84 K	23.83
270.43 K	24.07
275.79 K	24.13
280.97 K	24.2
286.16 K	24.27
291.35 K	24.32
296.54 K	24.39
301.73 K	24.51
306.93 K	24.55
312.11 K	24.54
317.29 K	24.59
322.48 K	24.64
327.67 K	24.69
332.85 K	24.81
338.04 K	24.86
343.25 K	24.88
348.43 K	25.04
